# From patent US9592223B2, “Small molecule inhibitors of MALT1” (Cornell University, priority 2012, dated 2017)
# Assays:
# [1] = target: T1, MALT1 active site mutant C464A (Homo sapiens, UniProt Q9UDY8, C464A); assay: LC-MS covalent modification, active site mutant; type: binding
# T1 construct: MALT1 paracaspase domain (329-728) presented a major peak at 55,988.4 Da
# Protocol: The final results were ranked on the predicted binding free energy and the cluster size for each docking conformation.
# HPLC/ESI-MS experiments were carried out on 5 μl sample at 1 mg/ml protein concentration. Separation of proteins was performed on a HP 1100 system (Hewlett Packard, Palo Alto, Calif., USA) employing a 1 mm×150 mm LC Packings column packed with POROS R1/H (Perseptive Biosystems, Foster City, Calif., USA). The column was kept at 80° C. Samples were injected onto the column using a CTC PAL autosampler (CTC, Zwingen Switzerland) fitted with a Valco model C6UW HPLC valve (Valco, Houston, Tex., USA) and a 10 μl injection loop. HPLC was controlled by MassLynx software (Micromass, Manchester, UK). UV detection was performed at 214 nm. Eluent A was water containing 0.05% TFA. Eluent B was a 1:9 mixture of water:acetonitrile containing 0.045% TFA. A gradient from 20% B to 90% B was run in 20 minutes. The flow rate was typically 60 μl/min. The total flow from the LC system was introduced into the UV detection cell prior to introduction in the ESI source. The HPLC system was controlled and the signal from the UV detector was processed using MassLynx software. […] Data were recorded and processed using MassLynx software. […]
# HBL-1 cells = assay: MI-2 intracellular concentration in HBL-1 cells by LC-MS; type: in vitro ADME, human
# [2] = tested on: TMD8 ABC-DLBCL xenografts; assay: TMD8 xenograft in NOD-SCID mice; type: in vivo; details: IP 25 mg/kg/day
# Protocol: Animals were sacrificed 24 hr after the fourteenth injection.
# Eight-week old male SCID NOD.CB17-Prkdc^scid/J mice were subcutaneously injected with low-passage 10^7 human HBL-1, TMD8 or OCI-Ly1 cells. Treatment was administered by intra-peritoneal injection. Tumor volume was monitored by three-weekly digital calipering. All procedures followed US NIH protocols and were approved by the Animal Institute Committee of the Weill Cornell Medical College.
# Eight-week old male SCID NOD.CB17-Prkdc^scid/J mice were purchased from Jackson Laboratories (Bar Harbor, Minn.) and housed in a clean environment. Mice were subcutaneously injected with low-passage 10^7 human TMD8 or OCI-Ly1 cells in 50% matrigel (BD Biosciences, #354234). Treatment was initiated when tumors reached an average size of 120 mm^3 (17 days post-transplantation). Drugs were reconstituted in DMSO and stored at −80° C. until used and were administered by intra-peritoneal injection. Tumor volume was monitored by three-weekly digital calipering (Fisher Scientific, Thermo Scientific, Rockford, Ill.) and calculated using the formula (smallest diameter^2×largest diameter)/2. Data were expressed as mean±SEM, and differences were considered statistically significant at p<0.05 by paired Student's t-test. All procedures involving animals followed US NIH protocols and were approved by the Animal Institute Committee of the Weill Cornell Medical College of Cornell University.
# Paraffin-embedded tumor xenografts were sectioned, dewaxed and submitted to antigen retrieval. For IF-P, Alexa Fluor-488 conjugated secondary antibodies from Invitrogen where used and cell nuclei where counterstained with DAPI. Fluorescent images were taken using an Axiovert 200M fluorescent microscope (Carl Zeiss Inc., Thornwood, N.Y.). Oberkochen, Germany). For IHC, biotin-conjugated secondary antibodies where used. Then avidin/biotin peroxidase was applied to the slides (Vector Laboratories). Color was developed with diaminobenzoate chromogen peroxidase substrate (Vector) and counterstained with hematoxilin-eosyn. […]
# [3] = tested on: primary human GCB DLBCL cells; assay: Primary human DLBCL cells ex vivo, GCB cases, Trypan blue; type: cell-based; details: 0.8 μM, 48 hr
# Protocol: After 48 hr exposure, cell number and viability were determined using Trypan blue.
# Patient de-identified tissues were obtained in accordance with the guidelines and approval of the Weill Cornell Medical College Review Board. Patient samples were processed as previously described (Cerchietti et al., 2010). Briefly, single cell suspensions from lymph node biopsies were obtained by physical disruption of tissues followed by cell density gradient separation (Fico/Lite LymphoH, Atlanta Biologicals, Lawrenceville, Ga.). Cell number and viability were determined by Trypan blue exclusion. Primary DLBCL cells were cultured in 96-well plates. Cells were grown in advanced RPMI medium with 20% FBS supplemented with antibiotics for 48 hours. […] After 48 hr of exposure, viability was determined by using Trypan blue (Sigma). All samples were normalized to their own replicate control. Statistical significance was calculated using paired T-test.
# T1 sequence (Q9UDY8 329-728 C464A): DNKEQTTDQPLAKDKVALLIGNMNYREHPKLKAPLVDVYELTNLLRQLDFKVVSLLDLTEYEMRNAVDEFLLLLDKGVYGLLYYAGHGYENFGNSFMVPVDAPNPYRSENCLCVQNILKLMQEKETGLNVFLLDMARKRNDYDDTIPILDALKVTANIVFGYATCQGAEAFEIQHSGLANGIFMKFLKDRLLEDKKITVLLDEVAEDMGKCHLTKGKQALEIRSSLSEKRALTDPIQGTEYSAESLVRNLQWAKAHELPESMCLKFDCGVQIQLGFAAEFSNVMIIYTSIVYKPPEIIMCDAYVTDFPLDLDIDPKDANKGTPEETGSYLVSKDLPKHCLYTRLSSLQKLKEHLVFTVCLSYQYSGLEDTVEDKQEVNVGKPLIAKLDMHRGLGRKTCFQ
structure (smiles),measurement,setting,value
COCCOc1nc(-c2ccc(Cl)c(Cl)c2)n(-c2ccc(NC(=O)CCl)cc2)n1 [MI-2],covalent binding to MALT1 C464A,[1],markedly reduced covalent binding
same,intracellular concentration,"HBL-1 cells; 0.2 μM treated HBL-1 cells, 2 hr",5 µM
same,free drug within the cells,"HBL-1 cells; 0.2 μM, by 12 hr",virtually no detectable free MI-2
same,xenograft growth vs. vehicle,"[2]; fourteen injections, p=0.015",profoundly suppressed the growth
same,apoptotic cells (TUNEL assay),[2]; p<0.0001,significant increase in apoptotic cells
same,proliferation (Ki-67 staining),[2]; p=0.0006,significant decrease in proliferation
same,response of cell number and viability,[3],none of the GCBs did
